Reference: patent US20100004292A1, “Iminooxazolidine Derivatives and Their Use” (Bayer HealthCare AG, priority 2005, published 2010)

Target: human factor Xa (FXa) (Homo sapiens, UniProt P00742)
Assay: Determination of the factor Xa inhibition (chromogenic substrate)
Type: biochemical
Settings: human FXa 0.5 nmol/l, 150 μmol/l Pefachrome FXa, 25° C., pH 8.3
Protocol: The enzymatic activity of human factor Xa (FXa) is measured using the conversion of a chromogenic substrate specific for FXa. Factor Xa cleaves p-nitroaniline from the chromogenic substrate. The determinations are carried out in microtiter plates as follows:
The test substances, in various concentrations, are dissolved in DMSO and incubated for 10 minutes at 25° C. with human FXa (0.5 nmol/l dissolved in 50 mmol/l of Tris buffer [C,C,C-tris(hydroxymethyl)aminomethane], 150 mmol/l of NaCl, 0.1% BSA [bovine serum albumin], pH=8.3). Pure DMSO is used as control. The chromogenic substrate (150 μmol/l Pefachrome® FXa from Pentapharm) is then added. After an incubation time of 20 minutes at 25° C., the extinction at 405 nm is determined.

Chain of human factor Xa (FXa) (P00742 235-488 limits assumed): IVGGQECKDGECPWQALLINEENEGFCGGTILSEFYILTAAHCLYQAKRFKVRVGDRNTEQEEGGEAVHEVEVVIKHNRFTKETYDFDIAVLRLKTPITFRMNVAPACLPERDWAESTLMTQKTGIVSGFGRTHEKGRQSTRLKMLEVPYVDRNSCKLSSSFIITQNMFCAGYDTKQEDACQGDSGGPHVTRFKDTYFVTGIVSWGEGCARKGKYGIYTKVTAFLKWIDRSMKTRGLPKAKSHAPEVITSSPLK
Chain of human factor Xa (FXa) (P00742 41-179 partner limits assumed): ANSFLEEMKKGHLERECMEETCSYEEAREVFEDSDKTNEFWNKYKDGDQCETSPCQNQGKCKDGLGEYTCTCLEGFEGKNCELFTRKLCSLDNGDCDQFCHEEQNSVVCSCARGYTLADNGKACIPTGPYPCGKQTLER

IC50	Compound
1.1 nM	N=C1OCCN1c1ccc(NC(=O)c2ccc(C(F)(F)F)cc2NC(=O)c2ccc(Cl)s2)cc1 [Example 3, 5-Chloro-N-[2-({[4-(2-imino-1,3-oxazolidin-3-yl)phenyl]amino}carbonyl)-5-(trifluoromethyl)-phenyl]thiophene-2-carboxamide methanesulfonate]
6.3 nM	N=C1OCCN1c1ccc(NC(=O)c2ccncc2NC(=O)c2ccc(Cl)s2)cc1 [Example 11, 3-{[(5-Chloro-2-thienyl)carbonyl]amino}-N-[4-(2-imino-1,3-oxazolidin-3-yl)phenyl]isonicotinamide methanesulfonate]
2.2 nM	N=C1OCCN1c1ccc(NC(=O)c2cscc2NC(=O)c2ccc(Cl)s2)cc1 [Example 16, 5-Chloro-N-[4-({[4-(2-imino-1,3-oxazolidin-3-yl)phenyl]amino}carbonyl)-3-thienyl]thiophene-2-carboxamide methanesulfonate]
0.66 nM	Cc1cc(NC(=O)c2ccc(Cl)s2)c(C(=O)Nc2ccc(N3CCOC3=N)cc2)cc1N(C)C [Example 20, 5-Chloro-N-[4-(dimethylamino)-2-({[4-(2-imino-1,3-oxazolidin-3-yl)phenyl]amino}carbonyl)-5-methylphenyl]thiophene-2-carboxamide methanesulfonate]
0.91 nM	CSc1nc(NC(=O)c2ccc(Cl)s2)c(C(=O)Nc2ccc(N3CCOC3=N)cc2)s1 [Example 24, 4-{[(5-Chloro-2-thienyl)carbonyl]amino}-N-[4-(2-imino-1,3-oxazolidin-3-yl)phenyl]-2-(methyl-thio)-1,3-thiazole-5-carboxamide methanesulfonate]
